Test results from patent publication US7705153B2, “Bipiperdine derivatives useful as CCR3 antagonists” (Schering Corporation, priority 2004, dated 2010).

Key:
[1] = biological target: T1, human CCR3 (Homo sapiens, UniProt P51677); assay: CCR3 SPA-based receptor binding assay; parameters: host or cells: Y3 cell line (rat), selected with G418; details: [125I]-eotaxin competition, membranes from human CCR3 transfected Y3 cell line
T1 sequence (P51677 1-355): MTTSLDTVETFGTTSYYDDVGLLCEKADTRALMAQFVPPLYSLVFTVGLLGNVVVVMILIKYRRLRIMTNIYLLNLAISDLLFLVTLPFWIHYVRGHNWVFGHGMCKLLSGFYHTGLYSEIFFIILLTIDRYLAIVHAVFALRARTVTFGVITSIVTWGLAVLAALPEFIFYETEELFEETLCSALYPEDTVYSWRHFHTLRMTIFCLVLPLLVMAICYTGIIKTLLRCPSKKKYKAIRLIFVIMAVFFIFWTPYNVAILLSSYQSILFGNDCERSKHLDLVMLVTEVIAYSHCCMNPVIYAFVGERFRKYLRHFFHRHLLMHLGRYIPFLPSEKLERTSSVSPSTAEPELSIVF
Method: CCR3 SPA-Based Receptor Binding Assay:
The procedure used was disclosed in Dairaghi et al, J. Biol. Chem., 272 (1997), pg. 28206-28209, and is described in detail below.
The source of the CCR3 receptors for this assay was purified membranes from a human CCR3 transfected Y3 cell line. Membranes were prepared by MDS Pharma Services (Bothell, Wash.) as follows. Cells were grown under selection (1 mg/ml G418) in 50-stack cube bioreactors with minimal media recirculation. Cells were harvested with trypsin and washed once with PBS. Cells were resuspended in 20 volumes of ice cold 2.5 mM Tris-HCl, pH 7.4 containing protease inhibitors (0.3 mM PMSF, 3 μg/ml aprotinin, 3 μg/ml luepeptin) and incubated on ice for 15 min. The swollen cells were lysed by vigorous vortexing and large debris was removed by centrifugation (1200 rpm, 5 min., 4° C.). The cleared lysate was subjected to ultra-centrifugation (100,000×g, 1 hr., 4° C.) to pellet the membrane fraction and the membrane fraction was resuspended in 25 mM HEPES, pH 7.6, 75 mM NaCl, 1 mM EDTA. Protease inhibitors were added as described above after a sample was removed for protein determination. The membrane preparation was brought to 6 to 10 mg/ml final concentration and BSA was added to 0.5%. Membranes were stored in 1 ml aliquots (−70° C.). […]

[2] = biological target: T1, human CCR3; assay: Intracellular calcium (Calcium flux, FLIPR) assay in CREM3 cells; format: cell-based; parameters: expressed in transfected cells; host or cells: CREM3 cells (rat Y3 cell line stably expressing human CCR3); details: CREM3 cells (human CCR3 in rat Y3 cell line)
Method: An IC50 value was interpolated from the dilution series for each compound and used to calculate a Ki value using the following equation: Ki=IC50/(1+[ligand]/Kd) Intracellular Calcium Assay: Cell Culture:
CREM3 cells, in which the human CCR3 receptor is stably expressed in the rat Y3 cell line, were cultured in DMEM high glucose containing 10% FBS, 50 U/ml penicillin, 50 μg/ml streptomycin, 2 mM L-glutamine, 1 mg/ml G418 (Gemini Bioproducts). Cells were cultured in fresh medium every 2 days.
Intracellular calcium levels were measured using a fluorometric imaging plate reader (FLIPR), (Molecular Devices, Sunnyvale Calif.) as described by the manufacturer. CREM3 cells were cultured overnight at 20,000 cells/well in 96 well black-wall clear bottom plates (Packard), precoated with 100 μg/ml poly D-lysine hydrobromide (Sigma). Adherent CREM3 cells were loaded with 4 μM Fluo-3 AM (Molecular Probes, Eugene, Oreg.), in pH 7.4 HBSS without phenol red, containing 20 mM HEPES, 0.5% FBS, 2.5 mM probenecid (Sigma), 0.04% pluronic acid (Molecular Probes) for 1 h at 37° C. […] Fluorescence data was collected at 1 s interval for 60 s, followed by collection at 2 s intervals for 60 s. Background fluorescence was quantitated in wells containing cells but no chemokines and was subtracted from all experimental samples. […]

Work on `COc1ccc(C(=O)N2CCC(N3CC[C@@H](Cc4ccc(Cl)c(Cl)c4)[C@@H](CO)C3)CC2)c2cccnc12` (relative stereo) [Example 2-EE] yielded a Ki [1] of 2.8 nM and an IC50 [2] of 3.6 nM.
